According to US20120059051A1, “ORAL COMPOSITION CONTAINING EGCG AND LYCOPENE” (DSM IP ASSET B.V., priority 2006, published 2012):

Columns and labels:
MMP-1 = assay: Inhibition of UV-A induced expression of matrix metalloproteinase-1 (real time PCR) in primary human dermal fibroblasts; assay type: cell-based; conditions: skin fibroblasts; for % inhibition: inhibition of UV-A induced MMP-1 expression, 30 J/cm^2 UVA1; for MMP-1 expression relative to UV-A only treated cells: 30 J/cm^2 UVA1, MMP-1 RNA 24 hrs after irradiation, UV-A only = 100%
Procedure: Primary human dermal fibroblasts were cultured in EMEM without glutamine (Earle's Minimum Essential Medium), supplemented with antibiotics/antimycotics, 2 mM L-glutamine and 7.5% fetal calf serum at 37° C.[…] and grown to 100% confluency. Forty-eight hours prior to irradiation the cells were preincubated with the desired substances in EMEM (with AB/AM, L-Glutamine and 2% FCS. After 24 hours the medium was replaced by fresh medium with substances (fresh prepared). For irradiation, the medium was removed and after 6 wash steps with phosphate-buffered saline (PBS) replaced by phosphate-buffered saline (PBS). The plate was then exposed to 30 J/cm^2 UVA1. The UVA1 output was approximately 150 mW/cm^2. After irradiation the phosphate-buffered saline in the cell microplate was exchanged against culture medium (+7.5% FCS) with the substances (fresh prepared) and the cells were incubated in a CO2-incubator for further 24 hrs (MMP-1 determination). The culture medium was removed, the cells were rinsed with phosphate-buffered saline and the whole plate was frozen in liquid nitrogen. Total RNA was isolated using RNeasy Total RNA Kits (Qiagen, Hilden; Germany). The RNA concentration was determined via photometric measurement at 260/280. Aliquots of total RNA (75 ng) were applied for cDNA-Synthesis using Superscript™ First-Strand synthesis system for RT-PCR. Two samples for each compound were analyzed. The PCR reactions were carried out on an Opticon 1 (MJ Research, Waltham, Mass., USA) using SYBR Green® PCR Master Mix (Applied Biosystems, Darmstadt, Germany). For comparison of relative expression in real time PCR control cells and treated cells the 2 ^(−delta delta C(T)) method was used.

UVA-induced MMPI = conditions: literature statement; increase only prevented in combination with vitamin E; cited from earlier work
UVA-induced collagenases = conditions: literature statement; cited from earlier work
skin collagenases = conditions: literature statement; cited from earlier work

| Compound | % inhibition (MMP-1) [%] | MMP-1 expression relative to UV-A only treated cells (MMP-1) [%] | effect on UVA-induced MMPI (UVA-induced MMPI) | effect on UVA-induced collagenases (UVA-induced collagenases) | effect on various skin collagenases (skin collagenases) |
| --- | --- | --- | --- | --- | --- |
| CC(C)=CCC/C(C)=C/C=C/C(C)=C/C=C/C(C)=C/C=C/C=C(C)/C=C/C=C(C)/C=C/C=C(\C)CCC=C(C)C [Lycopene, lycopene] | 65 | 35 | further increase |  |  |
| CC1=C(/C=C/C(C)=C/C=C/C(C)=C/C=C/C=C(C)/C=C/C=C(C)/C=C/C2=C(C)CCCC2(C)C)C(C)(C)CCC1 [betacarotene] |  |  |  | repress |  |
| (−)-epigallocatechin gallate [EGCG] | 13 | 87 |  |  | suppress |
